Measured values reported in US5171676A, “Method of introducing hydroxyl groups into artemisinin and its derivatives” (priority 1991, dated 1992).
≈ marks a conversion by molar mass, not a printed value. Read-outs that look alike come from different tables or passages of the source.

Columns and labels:
[1] = system: Plasmodium falciparum, malarial strain W2; test: Antimalarial activity in vitro, growth inhibition, strain W2; assay type: cell-based; settings: for IC50: Plasmodium falciparum
Method: (§1) The antimalarial activity of various hydroxylated artemisinin derivatives obtained via the present method was determined by Drs. S. Anderson and W.K. Milhous at the Division of Experimental Therapeutics, Walter Reed Army Institute of Research, Washington, D.C.
(§2) The malarial strains employed in this survey include D6, W2, and GA3. In Table 2, below, the -pharmacological data are reported as IC-50, indicating the concentration, in ng per ml, of compound required to inhibit growth of the parasite at the 50% level.

[2] = system: Plasmodium falciparum; test: Antimalarial activity against the strains tested (summary of in vitro tests); assay type: cell-based; settings: in words
Method: as §1, §2

[3] = system: Plasmodium falciparum, malarial strain GA3; test: Antimalarial activity in vitro, growth inhibition, strain GA3; assay type: cell-based; settings: 50% inhibition of parasite growth; for IC50: Plasmodium falciparum
Method: as §1, §2

[4] = system: Plasmodium falciparum, malarial strain D6; test: Antimalarial activity in vitro, growth inhibition, strain D6; assay type: cell-based; settings: for IC50: Plasmodium falciparum
Method: as §1, §2

[5] = system: P. falciparum; settings: cited from earlier work
[6] = system: Falciparum malaria; settings: cited from earlier work; for reversal of chloroquine-resistance: with chloroquine, reports by Van Dyke et al.
[7] = strain D6, in vitro, 50% inhibition of parasite growth, read-out: IC-50
[8] = strain W2, in vitro, 50% inhibition of parasite growth, read-out: IC-50

| SMILES | antimalarial activity [2] | IC50 [4, 7] | IC50 [1, 8] | IC50 [3] | also measured |
| --- | --- | --- | --- | --- | --- |
| CCOC1OC2OC3(C)CCC4C(C)C(O)CC(C1C)C24OO3 (stereo not drawn) [7β-Hydroxyarteether] | exhibit antimalarial activity against the strains tested |  |  |  | IC-50 ([1]; strain W2, in vitro, 50% inhibition of parasite growth): 2.78 ng/mL; IC-50 [3]: 8.83 ng/mL; IC-50 ([4]; strain D6, in vitro, 50% inhibition of parasite growth): 12.6 ng/mL |
| C[C@H]1C(OC(=O)Nc2ccccc2)O[C@@H]2O[C@@]3(C)CC[C@H]4[C@H](CO)CC[C@@H]1[C@@]24OO3 (stereo partly shown) [14-Hydroxy-N-phenylcarbamoyl dihydroartemisinin] | exhibit antimalarial activity against the strains tested | 2 ng/mL (≈ 4.77 nM) |  |  |  |
| CCOC1OC2OC3(C)CCC4C(CO)CCC(C1C)C24OO3 (stereo not shown) [14-Hydroxyarteether] | exhibit antimalarial activity against the strains tested | 12.6 ng/mL (≈ 38.4 nM) | 2.77 ng/mL (≈ 8.43 nM) | 8.18 ng/mL (≈ 24.9 nM) |  |
| CCOC1OC2OC3(C)CCC4C(C)CCC(C1C)C24OO3 (stereo not shown) [Arteether, ethyl ether of dihydroartemisinin] |  | 0.73 ng/mL (≈ 2.34 nM) | 0.28 ng/mL (≈ 0.896 nM) | 0.498 ng/mL (≈ 1.59 nM) |  |
| C[C@@H]1CC[C@H]2[C@@H](C)C(=O)O[C@@H]3O[C@@]4(C)CC[C@@H]1[C@]32OO4 [Artemisinin, artemisinin] |  | 0.97 ng/mL (≈ 3.44 nM) | 0.79 ng/mL (≈ 2.8 nM) | 1.58 ng/mL (≈ 5.6 nM) | resistance development ([5]; P. falciparum): P. falciparum has not developed resistance; speed of action [5]: act rapidly; toxicity [5]: relatively non-toxic |
| CCN(CC)CCCC(C)Nc1ccnc2cc(Cl)ccc12 (stereo not shown) [Chloroquine, chloroquine] |  |  |  |  | IC50 ([1]; W2): 41.4 ng/mL (≈ 129 nM); IC50 ([4]; D6): 6.63 ng/mL (≈ 20.7 nM) |
| COc1ccc2cc1Oc1ccc(cc1)C[C@H]1c3cc(c(OC)cc3CCN1C)Oc1c(OC)c(OC)cc3c1[C@H](C2)N(C)CC3 [tetrandrine] |  |  |  |  | synergy with antimalarial drugs ([6]; Van Dyke): act in a synergistic manner to greatly reduce the quantities of drugs required for activity; reversal of chloroquine-resistance [6]: reverse the chloroquine-resistance in Falciparum malaria |
| COc1ccc(CCN(C)CCCC(C#N)(c2ccc(OC)c(OC)c2)C(C)C)cc1OC (stereo not shown) [verapamil] |  |  |  |  | synergy with antimalarial drugs [6]: act in a synergistic manner to greatly reduce the quantities of drugs required for activity; reversal of chloroquine-resistance [6]: reverse the chloroquine-resistance in Falciparum malaria |
